Values quoted from earlier work, collected in US6339092B1, “Metalloprotease inhibitors” (Adir et Compagnie, priority 1999, dated 2002).

Test system: ovarian cancers
Conditions: Becket el al., DDT 1996; cited from earlier work

CNC(=O)[C@H](Cc1ccccc1)NC(=O)[C@H](CC(C)C)[C@H](CSc1cccs1)C(=O)NO [BB94]
anti-tumour activity in clinical use: active against ovarian cancers
